Measured values taken from patent publication US12673073B2, “FasL-engineered biomaterials with immunomodulatory function” (University of Louisville Research Foundation, Inc., priority 2017, dated 2026).

Key:
[1] = tested on: allogeneic (Balb/c) islets in streptozotocin-diabetic C57BL/6 mice; test: Allogeneic islet transplantation under the kidney capsule of diabetic mice; type: in vivo, mouse; conditions: rapamycin injections 0.2 mg/kg daily 15 doses, without SA-FasL-engineered microgels
Procedure: Islet transplantation. BALB/c pancreatic islets were isolated using Liberase TL as a digestive enzyme (Roche Life Science) and purified by a Ficoll density gradient as previously published. […] To biotinylate islets, overnight cultured islets were incubated in 5 μM EZ-Link Sulfo-NHS-LC-Biotin (Thermo Scientific) for 30 min at room temperature, washed extensively with PBS to remove unbound biotin solution. […] Approximately, 500 islets were co-transplanted with 1000 microgels into streptozotocin diabetic (200 mg/kg i.p., diabetes (>250 mg/dL) confirmed on two consecutive days) C57BL/6 or B6.129(Cg)-Foxp3^tm3(DTR/GFP)Ayr (C57BL/6.FoxP3^EGFP/DTR) recipients, where indicated. For Treg depletion, islet graft recipients were injected i.p. with diphtheria toxin (50 μg/kg body weight) and depletion was confirmed 3 days later in peripheral blood lymphocytes using flow cytometry. Selected groups were also treated i.p. with rapamycin at 0.2 mg/kg daily for 15 doses starting the day of transplantation. Unmodified BALB/c islets co-transplanted with unmodified PEG gels were used as controls. Animals were monitored for blood glucose and >250 mg/dL blood glucose levels for two consecutive daily measurements were considered rejected. […] Blood glucose levels were assessed by tail prick before injection and 10, 20, 30, 60, 90, 120 minutes after injection. […]

SA = SA (Streptomyces avidinii, UniProt P22629); conditions: cited from earlier work
Chain of SA (P22629 25-183): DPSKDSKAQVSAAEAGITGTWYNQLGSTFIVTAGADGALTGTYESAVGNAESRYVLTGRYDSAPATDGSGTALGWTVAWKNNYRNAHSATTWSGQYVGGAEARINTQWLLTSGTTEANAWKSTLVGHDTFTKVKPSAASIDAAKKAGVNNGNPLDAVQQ

avidin = avidin (Gallus gallus, UniProt P02701); conditions: cited from earlier work
Chain of avidin (P02701 25-152): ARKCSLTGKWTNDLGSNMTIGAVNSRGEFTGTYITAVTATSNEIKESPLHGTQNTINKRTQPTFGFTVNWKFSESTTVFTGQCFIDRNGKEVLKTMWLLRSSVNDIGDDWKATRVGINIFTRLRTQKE

| SMILES | median survival time (MST) of islet grafts [1] [days] | affinity for SA (SA) | affinity for avidin (avidin) |
| --- | --- | --- | --- |
| CO[C@H]1C[C@@H]2CC[C@@H](C)[C@@](O)(O2)C(=O)C(=O)N2CCCC[C@H]2C(=O)O[C@H]([C@H](C)C[C@@H]2CC[C@@H](O)[C@H](OC)C2)CC(=O)[C@H](C)/C=C(\C)[C@@H](O)[C@@H](OC)C(=O)[C@H](C)C[C@H](C)/C=C/C=C/C=C/1C [rapamycin] | 36 | – | – |
| O=C(O)CCCC[C@@H]1SC[C@@H]2NC(=O)N[C@@H]21 [biotin] | – | 10^13 M^−1 | 10^15 M^−1 |
